Reference: patent publication US4559362A, “Immunopotentiator” (Zaidan Hojin Biseibutsu Kagaku Kenkyu Kai, priority 1982, dated 1985)
Converted amounts (≈) assume the structure as drawn.

Legend:
[1] = tested on: delayed-type hypersensitivity (DTH) to sheep erythrocytes; test: Effect on delayed-type hypersensitivity (DTH) to sheep erythrocytes, sole swelling; type: in vivo, CDF1 mice
Protocol: (§1) The pharmacological effects of spermidine will be illustrated by reference to the following experimental examples, in which spermidine was administered as its phosphate dissolved in physiological saline.
In accordance with the method of Lagrange et al. (Lagrange, P. H., Mackaness, G. B., and Miller, T. E.: Influence of dose and route of antigen injection on the immunological induction of T cells. J. Exp. Med. 139, 528-542, 1974), the effect of spermidine on cellular immunity was investigated using as its index the degree of delayed-type hypersensitivity (DTH) to sheep erythrocytes as the antigen. CDF1 mice (8 weeks old, female) were intravenously injected with 10^5 or 10^8 sheep erythrocytes for immunization, and at the same time, were intraperitoneally injected with spermidine. Four days later, the soles of the mice were subcutaneously injected with 10^8 sheep erythrocytes to induce the DTH reaction. Twenty four hours later, swellings on the soles were measured with a caliper to evaluate the effect of spermidine.

[2] = tested on: suppressor cells against DTH; test: Inhibition of the elevation of suppressor cells against DTH (spleen cell transfer), sole swelling; type: in vivo, CDF1 mice; conditions: transferred suppressor cells; for % suppression: untreated suppressor cells 53
Protocol: as §1
Experiments were conducted to transfer suppressor cells, in accordance with the method of Yamaguchi et al. (Yamaguchi, K. and Kishimoto, S.: Distinction between suppressors of the delayed-type hypersensitivity and the humoral response to sheep erythrocytes. Immunology. 35, 721-731, 1978). CDF1 mice (8 weeks old, female) were intravenously administered with 10^8 sheep erythrocytes, the amount enough to induce the elevation of suppressor cells against DTH. The objective was to promote the production of suppressor cells. Two days later, supermidine was intraperitoneally injected once daily, and this treatment was continued for 3 days. Five days later, spleen cells were collected from the mice, and 4.5×10^7 cells of them were transferred to normal syngenic mice by i.v. injection. Simultaneously, 10^5 sheep erythrocytes, the amount enough to obtain the optimal reaction, was i.v. injected for immunization.
Four days later, 10^8 sheep erythrocytes were subcutaneously injected to the soles of the mice to induce the reaction. Twenty-four hours later, swellings on the soles were measured to evaluate the efficacy of spermidine.

IMC cancer cells = test: Growth inhibitory effect on cultured IMC cancer cells; type: cell-based; conditions: 48 hours, 37° C., read-out: concentration at which 50% of the original cells were inhibited from growth
Protocol: A study was conducted on the growth inhibitory effect of spermidine on cultures of IMC cancer cells and L-1210 cells. IMC cancer cells were cultured in an RPMI 1640 medium containing 10% bovine fetus serum and 2-mercaptoethanol, and L-1210 cells in an MEM medium containing 10% calf serum, for 48 hours at 37° C. in 5% carbon dioxide. The number of cultured cells was counted with a Coulter counter to evaluate the degree of cell proliferation. Spermidine was added at the start of incubation.

IMC carcinoma = test: Antitumor effect on IMC carcinoma transplanted subcutaneously into CDF1 mice; type: in vivo; conditions: for Weight of tumor ± S.D.: 10 times on alternative days, day 30, in mg (unit assumed)
Protocol: as §1
(a) The antitumor effect of spermidine was investigated on IMC carcinoma successively transplanted into CDF1 mice and on S180 sarcoma transplanted into ICR mice. 1×10^6 tumor cells of each of the above type were transplanted subcutaneously into such mice (Day 0). From Day 1 onwards, spermidine was intraperitoneally injected a total of 10 times (once daily on alternative days). Thirty days after transplantation of tumor cells, the tumor was removed and weighed to evaluate the effect of spermidine.

IMC ascites tumor = test: Concomitant treatment with bleomycin and spermidine on IMC ascites tumor, survival; type: in vivo, CDF1 mice
Protocol: as §1
(c) 1×10^6 IMC cancer cells were transplanted into CDF1 mice by intraperitoneal injection (Day 0). Bleomycin (5 mg/kg) was administered once daily for 5 consecutive days, and spermidine (5 mg/kg) was administered a total of 10 times on alternative days. The effect of concomitant treatment with spermidine and the anticancer drug was evaluated by considering the number of days that the mice survived.

[3] = Toxicity given intravenously to mice; type: in vivo; conditions: 250 mg/kg intravenously
Protocol: Spermidine used in this invention has a very low toxicity. It is not toxic at a dose of 250 mg/kg when given intravenously to mice.

## NCCCCNCCCN [Spermidine, spermidine]
[1]; 5 to 0.005 mg/kg
  effect on normal cellular immunity: enhances normal cellular immunity
[1]; 10^5 sheep erythrocytes, 0.01 μg/mouse (0.0005) i.p.
  Swelling on the sole: 5.8 ± 0.4 × 0.1 mm
[1]; 10^5 sheep erythrocytes, 0.01 μg/mouse (0.0005) i.p., untreated 10^5 group = 100
  % increase (swelling on the sole): 91%
[1]; 10^5 sheep erythrocytes, 0.1 μg/mouse (0.005) i.p.
  Swelling on the sole: 9.4 ± 0.7 × 0.1 mm
[1]; 10^5 sheep erythrocytes, 0.1 μg/mouse (0.005) i.p., untreated 10^5 group = 100
  % increase (swelling on the sole): 147%
[1]; 10^5 sheep erythrocytes, 1 μg/mouse (0.05) i.p.
  Swelling on the sole: 8.5 ± 0.7 × 0.1 mm
[1]; 10^5 sheep erythrocytes, 1 μg/mouse (0.05) i.p., untreated 10^5 group = 100
  % increase (swelling on the sole): 133%
[1]; 10^5 sheep erythrocytes, 10 μg/mouse (0.5) i.p.
  Swelling on the sole: 8.9 ± 0.7 × 0.1 mm
[1]; 10^5 sheep erythrocytes, 10 μg/mouse (0.5) i.p., untreated 10^5 group = 100
  % increase (swelling on the sole): 139%
[1]; 10^5 sheep erythrocytes, 100 μg/mouse (5) i.p.
  Swelling on the sole: 8.1 ± 1.1 × 0.1 mm
[1]; 10^5 sheep erythrocytes, 100 μg/mouse (5) i.p., untreated 10^5 group = 100
  % increase (swelling on the sole): 126%
[1]; 10^5 sheep erythrocytes, 1000 μg/mouse (50) i.p.
  Swelling on the sole: 7.1 ± 0.3 × 0.1 mm
[1]; 10^5 sheep erythrocytes, 1000 μg/mouse (50) i.p., untreated 10^5 group = 100
  % increase (swelling on the sole): 111%
[1]; 10^5 sheep erythrocytes, 0.01 or 1000 μg/mouse
  effect of enhancing cellular immunity: no enhancing effect
[1]; 10^5 sheep erythrocytes, 0.1 to 100 μg/mouse
  effect of enhancing cellular immunity: significant effect of enhancing cellular immunity
[1]; 10^8 sheep erythrocytes, 0.01 μg/mouse (0.0005) i.p.
  Swelling on the sole: 4.5 ± 0.2 × 0.1 mm
[1]; 10^8 sheep erythrocytes, 0.01 μg/mouse (0.0005) i.p., untreated 10^5 group = 100, untreated 10^8 group = 48
  % increase (swelling on the sole): 70%
[1]; 10^8 sheep erythrocytes, 0.1 μg/mouse (0.005) i.p.
  Swelling on the sole: 5.3 ± 0.3 × 0.1 mm
[1]; 10^8 sheep erythrocytes, 0.1 μg/mouse (0.005) i.p., untreated 10^5 group = 100, untreated 10^8 group = 48
  % increase (swelling on the sole): 83%
[1]; 10^8 sheep erythrocytes, 1 μg/mouse (0.05) i.p.
  Swelling on the sole: 6.3 ± 0.3 × 0.1 mm
[1]; 10^8 sheep erythrocytes, 1 μg/mouse (0.05) i.p., untreated 10^5 group = 100, untreated 10^8 group = 48
  % increase (swelling on the sole): 98%
[1]; 10^8 sheep erythrocytes, 10 μg/mouse (0.5) i.p.
  Swelling on the sole: 6.4 ± 0.06 × 0.1 mm
[1]; 10^8 sheep erythrocytes, 10 μg/mouse (0.5) i.p., untreated 10^5 group = 100, untreated 10^8 group = 48
  % increase (swelling on the sole): 100%
[1]; 10^8 sheep erythrocytes, 100 μg/mouse (5.0) i.p.
  Swelling on the sole: 6.4 ± 0.4 × 0.1 mm
[1]; 10^8 sheep erythrocytes, 100 μg/mouse (5.0) i.p., untreated 10^5 group = 100, untreated 10^8 group = 48
  % increase (swelling on the sole): 100%
[1]; 10^8 sheep erythrocytes, 1000 μg/mouse (50) i.p.
  Swelling on the sole: 7.4 ± 0.5 × 0.1 mm
[1]; 10^8 sheep erythrocytes, 1000 μg/mouse (50) i.p., untreated 10^5 group = 100, untreated 10^8 group = 48
  % increase (swelling on the sole): 116%
[1]; 10^8 sheep erythrocytes, 0.1 to 1000 μg/mouse, vs 10^8 control group
  effect of strengthening cellular immunity: marked effect of strengthening cellular immunity
[1]; 10^8 sheep erythrocytes, 10 to 1000 μg/mouse
  DTH reaction compared with group immunized with 10^5 erythrocytes: comparable
[1]; 50 to 0.5 mg/kg
  effect on suppression of cellular immunity by suppressor cells: inhibit the suppression of cellular immunity by suppressor cells
[2]; 10 μg/mouse i.p. once daily for 3 days
  Swelling on the sole: 8.0 ± 0.3 × 0.1 mm
[2]; 10 μg/mouse
  % suppression: 42%
[2]; 100 μg/mouse i.p. once daily for 3 days
  Swelling on the sole: 10.2 ± 0.4 × 0.1 mm
[2]; 100 μg/mouse
  % suppression: 26%
[2]; 1000 μg/mouse i.p. once daily for 3 days
  Swelling on the sole: 10.9 ± 0.8 × 0.1 mm
[2]; 1000 μg/mouse
  % suppression: 21%
IMC cancer cells
  IC50: 2.4 µg/mL (≈ 16.5 µM)
IMC carcinoma; 0.05 mg/kg/day i.p.
  % inhibition (weight of tumor): 26%
  Weight of tumor ± S.D.: 5112 ± 2263
IMC carcinoma; 0.5 mg/kg/day i.p.
  % inhibition (weight of tumor): 58%
  Weight of tumor ± S.D.: 2893 ± 964
IMC carcinoma; 5 mg/kg/day i.p.
  % inhibition (weight of tumor): 40%
  Weight of tumor ± S.D.: 4125 ± 1852
IMC carcinoma; 50 mg/kg/day i.p.
  % inhibition (weight of tumor): 44%
  Weight of tumor ± S.D.: 3886 ± 1351
IMC ascites tumor; spermidine (5 mg/kg) alone
  Survival rate on Day 60: 0/10
IMC ascites tumor; spermidine (5 mg/kg) alone, 10 times on alternative days
  Survival period: 20.1 ± 2.3 days
IMC ascites tumor; spermidine (5 mg/kg) alone, control = 100
  Increase of life span: 114%
IMC ascites tumor; spermidine alone
  life span increase against the control group: 14%
[3]
  toxicity: not toxic
